Measurements taken from article PMC3930709, “Selective Activation of hTRPV1 by N-Geranyl Cyclopropylcarboxamide, an Amiloride-Insensitive Salt Taste Enhancer” (PLoS ONE, 2014).

Assays:
[1] = molecular target: T1, hTRPA1 (Homo sapiens, UniProt O75762); assay: Whole-cell patch clamp recording, cells stably expressing hTRPA1; assay type: cell-based
T1 construct: expressed in transfected cells
Description: (§1) Flp-In 293 cell lines stably expressing hTRPA1constructed as previously reported was a gift from the professor Takumi Misaka at University of Tokyo. The hTRPA1-expressing cells were cultured in DMEM containing 10% FBS and 0.02% hygromycin B (Invitrogen). Flp-In 293 cell lines were maintained in DMEM containing 10% FBS. All cells were incubated at 37°C in a humidified atmosphere of 5% CO2.
(§2) The whole-cell configuration was used to voltage-clamp at room temperature (22–25°C). Electrodes pulled from glass micropipette capillaries (Sutter Instrument) had resistances of 2–2.5 MΩ, and series resistance errors were compensated >60%. Fast and slow capacitances were compensated before the application of test-pulse. Recordings were performed using aHEKAEPC-10 amplifier with pulse software (HEKA Elektronik). The pipette solution contained: 140 mM KCl, 5 mM MgCl2, 10 mM HEPES, 0.1 mM 1,2-bis(2-aminophenoxy) ethane N,N,N’,N’-tetraacetic acid(BAPTA), 3 mM Na2ATP, and 0.1 mM Na3GTP, adjusted to pH 7.4 with KOH. The external Ringer’s solution used for recording TRPV1 and TRPA1 currents contained: 150 mM NaCl, 5 mM KCl, 1 mM MgCl2, 2 mM EGTA, 10 mM Glucose, and 10 mM HEPES, adjusted to pH 7.4 with NaOH. TRPV1 and TRPA1 currents were recorded by holding the cell at −80 mV. The external Ringer’s solution used for recording ASIC current contained: 160 mM NaCl, 5 mM KCl, 1 mM MgCl2, 2 mM CaCl2, and 10 mM HEPES, adjusted to pH 7.4 with tetramethylammonium hydroxide. For acidic solution of pH 6.0, HEPES was replaced with MES. ASIC currents were recorded by holding the cell at −70 mV. Reagents were obtained as follows: BAPTA, Na2ATP, Na3GTP, EGTA, and tetramethylammonium hydroxide (Sigma), HEPES (Calbiochem), MES (Alfa Aesar), and other chemicals (Merck).

[2] = molecular target: T1, hTRPA1; assay: Measurement of Ca2+ influx (Fluo-4 AM, FlexStation III) in hTRPA1-expressing cells; assay type: cell-based; conditions: for block of NGCC activity on hTRPA1-expressing cells (dose-response): RR 30 µM, HC-030031 100 µM; for block of AITC activity on hTRPA1-expressing cells (dose-response): RR 30 µM: below 30 µM AITC, HC-030031 100 µM: below 10 µM AITC
Description: as §1
(§3) The ligand-induced changes on cytosolic Ca^2+ level were monitored by a FlexStation III microplate reader (Molecular Devices). Fluo-4 AM (5 µM, Molecular Probes, Eugene, OR, USA) in assay buffer was loaded to the cells in 96-well black-wall plates for 30 min at 27°C. After dye treatment, each chemical was added to each well at 17 s and changes on intracellular Ca^2+ level were monitored by relative fluorescence units (ΔRFU, Ex = 485 nm; Em = 516 nm) for 120 s. […] The responses from at least three wells receiving the same stimulus were averaged. Plots of amplitude versus concentration were fitted using the Hill equation.

[3] = molecular target: T1, hTRPA1; assay: Ca2+ imaging (Fura-2 AM) of hTRPA1-expressing Flp-In 293 cells; assay type: cell-based; conditions: RR 30 µM, HC-030031 100 µM
Description: Flp-In 293 cell lines stably expressing hTRPA1constructed as previously reported was a gift from the professor […] at University of Tokyo. The hTRPA1-expressing cells were cultured in DMEM containing 10% FBS and 0.02% hygromycin B (Invitrogen). Flp-In 293 cell lines were maintained in DMEM containing 10% FBS. All cells were incubated at 37°C in a humidified atmosphere of 5% CO2. […] Mock-transfected HEK293T cells, hTRPV1-expressing HEK293T cells, non-hTRPA1-expressing Flp-In 293 cells, and hTRPA1-expressing Flp-In 293 cells grown in 96-well black-wall plates were rinsed with assay buffer (130 mM NaCl, 10 mM glucose, 5 mM KCl, 2 […]2, 1.2 mM MgCl2, and 10 mM HEPES, pH 7.4) and loaded with 5 μM Fura-2 AM (Invitrogen) for 30 min at 27°C. The cells were washed with assay buffer and treated with ligands. […] The fluorescence intensities of Fura-2 excited at 340 and 380 nm were simultaneously measured at 510 nm using a computer-controlled filter changer (Lambda DG4; Sutter, San Rafael, CA, USA), an Andor Luca CCD camera (Andor Technology, Belfast, UK), and an inverted fluorescence microscope (IX-71; Olympus, Tokyo, Japan). Intracellular calcium images were recorded every 3-s for 60-s and analyzed using MetaFluor software (Molecular Devices, Sunnyvale, CA, USA).

[4] = molecular target: T2, hTRPV1 (Homo sapiens, UniProt Q8NER1); assay: Measurement of Ca2+ influx (Fluo-4 AM, FlexStation III) in hTRPV1-expressing cells; assay type: cell-based; conditions: RR 30 µM or CPZ 1 µM added with agonist
T2 construct: expressed in transfected cells; host or cells: HEK293T
Description: as §3, with “hTRPV1 was constructed by amplification of the hTRPV1 region (NCBI accession number: NG_029716.1) and cloned into pEAK10 vector (Edge Biosystems, Gaithersburg, MD, USA). The hTRPV1 construct was amplified by PCR and the nucleotide sequence of the hTRPV1 gene was confirmed by sequencing with an ABI 3130 DNA genetic analyzer (Applied Biosystems, Foster City, CA, USA). […] After 6 h, transfected cells were seeded onto 96-well black-wall plate (BD Falcon Labware, Franklin Lakes, NJ, USA) for 18–26 h prior to their use in an experiment. The ligand-induced” for “The ligand-induced”

[5] = molecular target: T2, hTRPV1; assay: Ca2+ imaging (Fura-2 AM) of hTRPV1-expressing HEK293T cells; assay type: cell-based; conditions: NGCC 30 µM; RR 30 µM, CPZ 1 µM
Description: hTRPV1 was constructed by amplification of the hTRPV1 region (NCBI accession number: NG_029716.1) and cloned into pEAK10 vector (Edge Biosystems, Gaithersburg, MD, USA). The hTRPV1 construct was amplified by PCR and the nucleotide sequence of the hTRPV1 gene was confirmed by sequencing with an ABI 3130 DNA genetic analyzer (Applied Biosystems, Foster City, CA, USA). […] After 6 h, transfected cells were seeded onto 96-well black-wall plate (BD Falcon Labware, Franklin Lakes, NJ, USA) for 18-26 h prior to their use in an experiment. Mock-transfected HEK293T cells, hTRPV1-expressing HEK293T cells, non-hTRPA1-expressing Flp-In 293 cells, and hTRPA1-expressing Flp-In 293 cells grown in 96-well black-wall plates were rinsed with assay buffer (130 mM NaCl, 10 mM glucose, 5 mM KCl, 2 […]2, 1.2 mM MgCl2, and 10 mM HEPES, pH 7.4) and loaded with 5 μM Fura-2 AM (Invitrogen) for 30 min at 27°C. […] The fluorescence intensities of Fura-2 excited at 340 and 380 nm were simultaneously measured at 510 nm using a computer-controlled filter changer (Lambda DG4; Sutter, San Rafael, CA, USA), an Andor Luca CCD camera (Andor Technology, Belfast, UK), and an inverted fluorescence microscope (IX-71; Olympus, Tokyo, Japan). Intracellular calcium images were recorded every 3-s for 60-s and analyzed using MetaFluor software (Molecular Devices, Sunnyvale, CA, USA).

[6] = test system: Bz-insensitive NaCl CT response; parameters: method as in PMID 15146042; conditions: rat CT recordings, cited from earlier work
[7] = molecular target: T2, hTRPV1; assay: Whole-cell patch clamp recording, hTRPV1-expressing HEK293T cells; assay type: cell-based; conditions: capsaicin 100 nM; NGCC 10^3 µM; holding -80 mV
Description: Mouse ASIC1a (mASIC1a) was a kind gift from John A. Wemmie (University of Iowa, IA, USA). For electrophysiological experiments, HEK293T cells were cultured in DMEM supplemented with 10% FBS and 0.2% penicillin/streptomycin and transiently transfected using Lipofectamine 2000 (Invitrogen) with various cDNAs. For TRPV1 channel expression, cells were transfected with hTRPV1, for ASIC1a homomeric channel expression, cells were transfected with mASIC1a. When needed, 0.1–0.2 µg of cDNA encoding tetrameric red fluorescence protein (DsRed) was co-transfected with the cDNA as a marker for successfully transfected cells. For non-transfected cells, cells were transfected with 0.1–0.2 µg of cDNA encoding DsRed alone. The next day, cells were plated onto poly-L-lysine-coated coverslip chips, and fluorescent cells were studied within 1–2 days.
as §2

T1 sequence (O75762 whole entry): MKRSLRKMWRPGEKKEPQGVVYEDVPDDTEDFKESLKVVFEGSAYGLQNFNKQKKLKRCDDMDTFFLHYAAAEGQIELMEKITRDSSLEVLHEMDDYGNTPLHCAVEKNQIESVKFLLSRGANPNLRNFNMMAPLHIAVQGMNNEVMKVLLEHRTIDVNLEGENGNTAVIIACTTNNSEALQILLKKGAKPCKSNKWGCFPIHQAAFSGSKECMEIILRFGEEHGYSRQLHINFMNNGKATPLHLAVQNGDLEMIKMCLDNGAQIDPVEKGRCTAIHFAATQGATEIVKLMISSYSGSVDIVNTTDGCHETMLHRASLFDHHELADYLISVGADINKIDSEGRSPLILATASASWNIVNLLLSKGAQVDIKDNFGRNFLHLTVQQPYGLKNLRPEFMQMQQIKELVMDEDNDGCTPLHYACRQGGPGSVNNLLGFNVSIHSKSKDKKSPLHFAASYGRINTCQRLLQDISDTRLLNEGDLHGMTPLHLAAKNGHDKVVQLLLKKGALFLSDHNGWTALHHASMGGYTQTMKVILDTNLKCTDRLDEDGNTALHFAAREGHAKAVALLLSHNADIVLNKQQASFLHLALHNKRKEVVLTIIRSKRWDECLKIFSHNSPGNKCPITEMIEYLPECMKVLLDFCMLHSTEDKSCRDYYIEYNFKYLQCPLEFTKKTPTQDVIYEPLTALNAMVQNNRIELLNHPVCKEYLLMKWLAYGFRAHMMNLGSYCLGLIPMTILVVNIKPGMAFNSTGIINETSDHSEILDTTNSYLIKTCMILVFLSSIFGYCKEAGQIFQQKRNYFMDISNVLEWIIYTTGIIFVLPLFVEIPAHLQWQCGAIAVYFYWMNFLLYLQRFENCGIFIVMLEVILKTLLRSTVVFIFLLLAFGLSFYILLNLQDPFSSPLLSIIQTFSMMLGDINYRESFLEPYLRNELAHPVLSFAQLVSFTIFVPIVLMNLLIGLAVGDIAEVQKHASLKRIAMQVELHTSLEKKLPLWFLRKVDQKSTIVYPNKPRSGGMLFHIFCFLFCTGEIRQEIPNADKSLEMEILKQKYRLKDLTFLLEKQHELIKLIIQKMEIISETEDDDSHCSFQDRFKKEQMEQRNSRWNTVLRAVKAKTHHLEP
T2 sequence (Q8NER1 whole entry): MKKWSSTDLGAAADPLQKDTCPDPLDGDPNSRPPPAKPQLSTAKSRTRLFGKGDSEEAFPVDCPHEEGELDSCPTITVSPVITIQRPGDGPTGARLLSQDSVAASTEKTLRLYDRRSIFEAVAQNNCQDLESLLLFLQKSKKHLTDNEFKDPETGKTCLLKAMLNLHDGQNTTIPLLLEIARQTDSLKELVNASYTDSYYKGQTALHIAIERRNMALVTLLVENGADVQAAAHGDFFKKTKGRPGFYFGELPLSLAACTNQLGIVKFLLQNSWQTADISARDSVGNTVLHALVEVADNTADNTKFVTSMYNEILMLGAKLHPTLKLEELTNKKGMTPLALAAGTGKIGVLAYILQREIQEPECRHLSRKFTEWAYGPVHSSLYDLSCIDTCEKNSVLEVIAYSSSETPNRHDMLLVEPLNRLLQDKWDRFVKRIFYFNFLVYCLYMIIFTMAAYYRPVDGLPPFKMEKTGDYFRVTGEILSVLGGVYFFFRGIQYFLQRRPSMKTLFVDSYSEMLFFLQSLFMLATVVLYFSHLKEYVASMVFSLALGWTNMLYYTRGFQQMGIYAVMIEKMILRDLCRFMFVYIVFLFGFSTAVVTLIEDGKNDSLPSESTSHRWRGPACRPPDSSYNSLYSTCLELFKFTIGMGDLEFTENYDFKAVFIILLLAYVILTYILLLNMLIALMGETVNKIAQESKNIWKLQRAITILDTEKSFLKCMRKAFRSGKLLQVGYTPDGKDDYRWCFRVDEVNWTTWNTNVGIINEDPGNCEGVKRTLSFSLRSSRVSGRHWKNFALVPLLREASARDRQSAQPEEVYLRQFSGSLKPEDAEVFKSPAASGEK

Row | SMILES | block of NGCC-induced currents in hTRPA1-expressing cells ([1]; HC-030031 100 µM) | block of AITC-induced current ([1]; HC-030031 100 µM preincubation 30 seconds, AITC 100 µM) | normalized current density of NGCC-induced current after wash out of HC-030031 ([1]; n = 4) | normalized current density of NGCC-induced current under HC-030031 ([1]; n = 4) | block of NGCC activity on hTRPA1-expressing cells (dose-response) [2] | block of AITC activity on hTRPA1-expressing cells (dose-response) [2] | inhibition of Ca2+ influx induced by 10 µM AITC and 30 µM NGCC in hTRPA1-expressing cells [3] | block of capsaicin- and NGCC-induced hTRPV1 activation (dose-response) [4] | block of NGCC-induced Ca2+ influx in hTRPV1-expressing cells [5] | effect on the NaCl+Bz CT response at 200 µM ([6]; 200 µM) | concentration giving the maximum increase in the NaCl+Bz CT response [6] [µM] | inward current in cells expressing hTRPV1 [7]
1 | CC(C)c1ccc(NC(=O)Cn2cnc3c2c(=O)n(C)c(=O)n3C)cc1 [HC-030031] | almost completely inhibited | partially blocked | 1.37±0.07 | 0.25±0.03 | almost blocked NGCC activity | partially blocked AITC activity | significantly inhibited | – | – | – | – | –
2 | N.N.N.N.N.N.N.N.N.N.N.N.N.N.[Cl-].[Cl-].[Cl-].[Cl-].[Cl-].[Cl-].[O-2].[O-2].[Ru+3].[Ru+3].[Ru+4] [RR, ruthenium red] | – | – | – | – | almost blocked NGCC activity | partially blocked AITC activity | significantly inhibited | inhibited capsaicin- and NGCC-induced hTRPV1 activation, but was less effective than CPZ | blocked NGCC activity to baseline levels | – | – | –
3 | COc1cc(CNC(=O)CCCC/C=C/C(C)C)ccc1O [capsaicin, Capsaicin] | – | – | – | – | – | – | – | – | – | completely inhibited | 40 | induced an inward current
